Results taken from patent publication US12729377B2, “RNAi agents and compositions for inhibiting expression of angiopoietin-like 3 (ANGPTL3), and methods of use” (Arrowhead Pharmaceuticals, Inc., priority 2017, dated 2026).
In the oligonucleotide strings, read from the 5' end, every base follows the letter of its sugar. An asterisk marks phosphorothioate; unmarked linkages are phosphodiester. Other units and linkages are bracketed, terminal groups are in braces. A string of capitals states the bases alone. {NAG37} = tridentate N-acetyl-galactosamine targeting ligand, structure (NAG37)s; [invAb] = inverted abasic unit; m = 2'-O-methyl; f = 2'-fluoro

Assays:
ANGPTL3 gene [1] = test: Example 3: serum triglycerides in mice; format: in vivo
Procedure: (§1) To assess the in vivo activity of ANGPTL3 RNAi agents that are designed to target positions 921 and 922 on the ANGPTL3 gene, six- to eight-week-old female C57bl/6 mice were used. Pre-dose serum samples were taken at day −1 after a four hour fast. At day 1, each mouse was given a single subcutaneous administration of 200 μl containing either 1 mg/kg (mpk) of an ANGPTL3 RNAi agent in D5W (dextrose in 5% water), or control (D5W) with no RNAi agent, according to the dosing groups recited in Table 12.
(§2) Each of the RNAi agents included a modified sequence and an N-acetyl-galactosamine-containing targeting ligand conjugated to the 5′ terminal end of the sense strand. (See Tables 3, 4, and 5 for modified sequences and targeting ligand structures). The injections were performed between the skin and muscle (i.e. subcutaneous injections) into the loose skin over the neck and shoulder area. Three (3) mice in each group were tested (n=3). […] Mice were fasted for four hours prior to each collection. ANGPTL3 protein levels in serum were measured by ELISA assay (R&D Systems), according to the manufacturer's recommendations. Triglycerides, high-density lipoprotein (HDL), and total cholesterol in serum were measured on a Cobas® Integra 400 (Roche Diagnostics), according to the manufacturer's recommendations.
(§3) The ANGPTL3 protein levels, triglyceride levels, HDL levels, and total cholesterol levels for each animal were normalized. For normalization, the level of ANGPTL3 protein, triglyceride, HDL, and total cholesterol, respectively, for each animal at a time point, was divided by the pre-treatment level of expression in that animal (in this case at day −1) to determine the ratio of expression “normalized to pre-treatment.” Expression at a specific time point was then normalized to the D5W control group by dividing the “normalized to pre-treatment” ratio for an individual animal by the mean “normalized to pretreatment” ratio of all mice in the D5W control group.

ANGPTL3 protein [2] = test: Example 7: serum ANGPTL3 protein by ELISA in mice; format: in vivo, C57bl/6 mice; design: key: ratio: (level/pre-treatment day -1 level) ÷ mean of D5W control group
Outline: (§4)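 Female C57bl/6 mice (6–8 weeks, n=3) received a single subcutaneous dose of 0.5 mg/kg GalNAc-conjugated RNAi agent or D5W vehicle. Serum was taken after a 4 h fast at day −1 and days 8, 15, 22 and 29. ANGPTL3 was measured by ELISA and lipids by clinical analyzer, each normalised to the animal's pre-dose level and then to the D5W group mean.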

ANGPTL3 gene [3] = test: Example 4: serum total cholesterol in mice; format: in vivo, C57bl/6 mice
Procedure: To assess the in vivo activity of ANGPTL3 RNAi agents that are designed to target additional positions on the ANGPTL3 gene, six- to eight-week-old female C57bl/6 mice were used. Pre-dose serum samples were taken at day −1 after a four hour fast. At day 1, each mouse was given a single subcutaneous administration of 200 μl containing either 1 mg/kg (mpk) or 0.5 mg/kg (mpk) of an ANGPTL3 RNAi agent in D5W (dextrose in 5% water), or control (D5W) with no RNAi agent, according to the dosing groups recited in Table 17.
Each of the RNAi agents included a modified sequence and an N-acetyl-galactosamine-containing targeting ligand conjugated to the 5′ terminal end of the sense strand. (See Tables 3, 4, and 5 for modified sequences and targeting ligand structures). The injections were performed between the skin and muscle (i.e. subcutaneous injections) into the loose skin over the neck and shoulder area. Three (3) mice in each group were tested (n=3). Serum was collected on days 8, 15, 22, 29, and day 43 (Groups 1-3, 9, and 11-13 only). Mice were fasted for four hours prior to each collection. ANGPTL3 protein levels in serum were measured by ELISA assay (R&D Systems), according to the manufacturer's recommendations. Triglycerides, high-density lipoprotein (HDL), and total cholesterol in serum were measured on a Cobas® Integra 400 (Roche Diagnostics), according to the manufacturer's recommendations.
as §3

ANGPTL3 protein [4] = test: Example 3: serum ANGPTL3 protein by ELISA in mice; format: in vivo, C57bl/6 mice; settings: for Avg ANGPTL3 (Average ANGPTL3 Protein Normalized to Pre-Treatment and Control): 1.0 mg/kg single subcutaneous dose on day 1, serum, female C57bl/6 mice
Procedure: as §1, §2, §3

ANGPTL3 gene [5] = test: Example 7: serum HDL in mice; format: in vivo; design: key: ratio: (level/pre-treatment day -1 level) ÷ mean of D5W control group; settings: 0.5 mg/kg single SC injection day 1, female C57bl/6 mice, n=3, ratio to D5W control
Outline: as §4

ANGPTL3 gene [6] = test: Example 3: serum HDL in mice; format: in vivo
Procedure: as §1, §2, §3

[7] = Day 8, 1.0 mg/kg single subcutaneous dose on day 1, female C57bl/6 mice
[8] = Day 15, 1.0 mg/kg single subcutaneous dose on day 1, female C57bl/6 mice
[9] = Day 22, 1.0 mg/kg single subcutaneous dose on day 1, female C57bl/6 mice
[10] = Day 29, 1.0 mg/kg single subcutaneous dose on day 1, female C57bl/6 mice
[11] = Day 8, 0.5 mg/kg single SC injection on day 1, n=3
[12] = Day 15, 0.5 mg/kg single SC injection on day 1, n=3
[13] = Day 22, 0.5 mg/kg single SC injection on day 1, n=3
[14] = Day 29, 0.5 mg/kg single SC injection on day 1, n=3
[15] = day 22, single 1 mg/kg subcutaneous, C57bl/6 mice

For “AD05308: RNAi agent duplex: antisense AM07003-AS, sense AM07002-SS (chain 1 mU*fG*mU*fUmGfAmAfUmUfAmAfUmGfUmCfCmAfUmGfG*mA; chain 2 {NAG37}*[invAb]*mUmCmCmAmUmGmGmAfCfAfUmUmAmAmUmUmCmAmAmCmA*[invAb])”, the “Avg TG (Average Triglycerides Normalized to Pre-Treatment and Control)” value (ANGPTL3 gene [1]; [7]) was 0.952, the “Avg TG (Average Triglycerides Normalized to Pre-Treatment and Control)” value (ANGPTL3 gene [1]; [8]) was 0.749 and the “Avg TG (Average Triglycerides Normalized to Pre-Treatment and Control)” value (ANGPTL3 gene [1]; [9]) was 0.854. The “Avg TG (Average Triglycerides Normalized to Pre-Treatment and Control)” value (ANGPTL3 gene [1]; [10]) was 1.009, the “Avg ANGPTL3, normalized to pre-treatment and control” value (from here on “Avg ANGPTL3, normalized”) (ANGPTL3 protein [2]; [11]) was 0.447 and the “Avg ANGPTL3, normalized” value (ANGPTL3 protein [2]; [12]) was 0.388. The “Avg ANGPTL3, normalized” value (ANGPTL3 protein [2]; [13]) was 0.440, the “Avg ANGPTL3, normalized” value (ANGPTL3 protein [2]; [14]) was 0.523 and the “Avg Total Chol, normalized to pre-treatment and control” value (“Avg Total Chol, normalized” below) (ANGPTL3 gene [3]; [11]) was 0.992. For the same substance, the “Avg Total Chol, normalized” value (ANGPTL3 gene [3]; Day 8, 1.0 mg/kg single SC injection on day 1, n=3) was 0.868, the “Avg Total Chol, normalized” value (ANGPTL3 gene [3]; [12]) was 0.838 and the “Avg Total Chol, normalized” value (ANGPTL3 gene [3]; Day 15, 1.0 mg/kg single SC injection on day 1, n=3) was 0.793. For the same substance, the “Avg Total Chol, normalized” value (ANGPTL3 gene [3]; [13]) was 1.000, the “Avg Total Chol, normalized” value (ANGPTL3 gene [3]; Day 22, 1.0 mg/kg single SC injection on day 1, n=3) was 0.770 and the “Avg Total Chol, normalized” value (ANGPTL3 gene [3]; [14]) was 0.958. The “Avg Total Chol, normalized” value (ANGPTL3 gene [3]; Day 29, 1.0 mg/kg single SC injection on day 1, n=3) was 0.819, the “Avg Total Chol, normalized” value (ANGPTL3 gene [3]; Day 43, 0.5 mg/kg single SC injection on day 1, n=3) was 1.157 and the “Avg Total Chol, normalized” value (ANGPTL3 gene [3]; Day 43, 1.0 mg/kg single SC injection on day 1, n=3) was 1.073. The “Avg ANGPTL3 (Average ANGPTL3 Protein Normalized to Pre-Treatment and Control)” value (ANGPTL3 protein [4]; Day 8) was 0.196, the “Avg ANGPTL3 (Average ANGPTL3 Protein Normalized to Pre-Treatment and Control)” value (ANGPTL3 protein [4]; Day 15) was 0.202 and the “Avg ANGPTL3 (Average ANGPTL3 Protein Normalized to Pre-Treatment and Control)” value (ANGPTL3 protein [4]; Day 22) was 0.209. For the same substance, the “Avg ANGPTL3 (Average ANGPTL3 Protein Normalized to Pre-Treatment and Control)” value (ANGPTL3 protein [4]; Day 29) was 0.309, the “ANGPTL3 protein normalized to pre-treatment and control” value (ANGPTL3 protein [4]; [15]) was 0.209 and the “reduction in ANGPTL3 protein levels compared to control” value (ANGPTL3 protein [4]; [15]) was roughly 80%. For the same substance, the “Avg HDL, normalized to pre-treatment and control” value (from here on “Avg HDL, normalized”) (ANGPTL3 gene [5]; Day 8) was 0.750, the “Avg HDL, normalized” value (ANGPTL3 gene [5]; Day 15) was 0.791 and the “Avg HDL, normalized” value (ANGPTL3 gene [5]; Day 22) was 0.846. For the same substance, the “Avg HDL, normalized” value (ANGPTL3 gene [5]; Day 29) was 0.905, the “Avg HDL (Average HDL Normalized to Pre-Treatment and Control)” value (ANGPTL3 gene [6]; [7]) was 0.838 and the “Avg HDL (Average HDL Normalized to Pre-Treatment and Control)” value (ANGPTL3 gene [6]; [8]) was 0.754. For the same substance, the “Avg HDL (Average HDL Normalized to Pre-Treatment and Control)” value (ANGPTL3 gene [6]; [9]) was 0.739 and the “Avg HDL (Average HDL Normalized to Pre-Treatment and Control)” value (ANGPTL3 gene [6]; [10]) was 0.953.
